Test results as given in ChEMBL document CHEMBL1201862, “PubChem BioAssay data set” (2004).
Activity calls are given as the source filed them.

Legend:
[1] = target: Voltage-gated inwardly rectifying potassium channel KCNH2 (Homo sapiens, UniProt Q12809); settings: Potency;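 also: confirmatory quantitative high-throughput screen measuring inhibition of hERG channel activity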
[2] = target: Dual specificity tyrosine-phosphorylation-regulated kinase 1A (Rattus norvegicus, UniProt Q63470); format: biochemical, Homo sapiens
Aminopeptidase N = target: T1, Aminopeptidase N (Plasmodium falciparum FcB1/Columbia, UniProt O96935); assay: malaria alanyl aminopeptidase activity blockers – biochemical, fluorogenic H-Leu-NHMec substrate, 1536-well (AID 1445); set-up: species or system Plasmodium falciparum 3D7, 3D7
T1 sequence (O96935 whole entry): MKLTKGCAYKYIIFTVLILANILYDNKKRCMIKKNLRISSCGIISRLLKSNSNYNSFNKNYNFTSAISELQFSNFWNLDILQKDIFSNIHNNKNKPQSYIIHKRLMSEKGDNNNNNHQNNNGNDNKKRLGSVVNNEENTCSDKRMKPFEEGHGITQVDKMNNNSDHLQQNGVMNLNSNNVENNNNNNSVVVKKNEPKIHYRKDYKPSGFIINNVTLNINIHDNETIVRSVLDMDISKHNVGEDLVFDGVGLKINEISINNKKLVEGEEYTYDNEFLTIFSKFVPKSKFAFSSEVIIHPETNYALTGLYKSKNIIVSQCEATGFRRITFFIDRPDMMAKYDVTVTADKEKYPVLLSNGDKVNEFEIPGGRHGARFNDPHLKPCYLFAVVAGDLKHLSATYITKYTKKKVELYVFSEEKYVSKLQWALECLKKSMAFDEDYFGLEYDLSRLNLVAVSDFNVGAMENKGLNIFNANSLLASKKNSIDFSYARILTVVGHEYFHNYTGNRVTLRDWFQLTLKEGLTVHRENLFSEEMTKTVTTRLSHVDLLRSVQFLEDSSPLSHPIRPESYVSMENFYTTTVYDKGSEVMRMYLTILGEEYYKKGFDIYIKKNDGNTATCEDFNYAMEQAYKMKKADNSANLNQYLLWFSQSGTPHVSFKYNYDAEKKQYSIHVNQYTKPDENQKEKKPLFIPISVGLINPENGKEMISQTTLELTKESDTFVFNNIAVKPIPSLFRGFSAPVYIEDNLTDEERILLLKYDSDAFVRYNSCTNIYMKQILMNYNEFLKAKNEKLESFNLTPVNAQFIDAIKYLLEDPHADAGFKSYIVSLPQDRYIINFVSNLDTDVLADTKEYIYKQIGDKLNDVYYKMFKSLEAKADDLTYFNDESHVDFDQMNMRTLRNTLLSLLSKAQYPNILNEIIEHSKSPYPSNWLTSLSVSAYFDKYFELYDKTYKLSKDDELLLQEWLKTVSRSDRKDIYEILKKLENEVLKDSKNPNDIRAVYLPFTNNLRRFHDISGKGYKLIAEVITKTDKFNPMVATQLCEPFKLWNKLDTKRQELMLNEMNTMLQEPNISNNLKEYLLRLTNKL

[3] = NIH-3T3 fibroblast cytotoxicity, dose response, cytotoxicity control, cell-based, fluorescence, Alamar Blue, secondary assay (AID 2327); format: functional;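 also: NIH-3T3 mouse fibroblasts cultured with fluconazole at 8 µg/mL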
[4] = fluconazole-exposed Candida albicans growth modulators – fluorescence, retest, confirmation (AID 2467); format: functional, cell-based
[5] = target: T2, Serine/threonine-protein phosphatase (Candida dubliniensis (strain CD36 / CBS 7987 / NCPF 3949 / NRRLY-17841) (Yeast), UniProt B9W6M3); assay: blockers of CaCl2-induced CDRE-lacZ signaling – S. cerevisiae, luminescence, secondary, dose response (AID 2388); format: functional, cell-based;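 also: yeast reporter cells carrying a calcineurin-responsive lacZ construct stimulated with calcium chloride; luminescent beta-galactosidase reporter signal in whole cells rather than isolated phosphatase activity; potency for inhibition where a drop in reporter signal means calcineurin blockade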
T2 sequence (B9W6M3 whole entry): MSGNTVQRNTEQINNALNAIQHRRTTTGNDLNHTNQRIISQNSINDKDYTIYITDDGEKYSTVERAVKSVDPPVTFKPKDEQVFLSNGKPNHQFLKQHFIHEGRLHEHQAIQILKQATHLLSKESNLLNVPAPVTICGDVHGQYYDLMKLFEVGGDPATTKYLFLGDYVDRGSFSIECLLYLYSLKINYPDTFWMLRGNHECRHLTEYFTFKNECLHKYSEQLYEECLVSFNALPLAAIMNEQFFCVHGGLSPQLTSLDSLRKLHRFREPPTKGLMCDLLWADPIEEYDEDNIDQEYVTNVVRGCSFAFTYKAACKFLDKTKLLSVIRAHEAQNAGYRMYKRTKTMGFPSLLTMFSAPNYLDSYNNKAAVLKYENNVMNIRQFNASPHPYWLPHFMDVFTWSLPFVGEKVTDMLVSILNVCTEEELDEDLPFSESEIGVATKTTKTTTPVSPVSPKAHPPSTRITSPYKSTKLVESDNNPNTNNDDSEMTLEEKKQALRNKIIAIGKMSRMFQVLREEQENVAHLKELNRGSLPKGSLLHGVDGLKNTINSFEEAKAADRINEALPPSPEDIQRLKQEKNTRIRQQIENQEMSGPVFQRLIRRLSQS

[6] = target: ATP-dependent molecular chaperone HSP82 (Candida albicans (strain WO-1) (Yeast), UniProt C4YTQ8); assay: steroid-induced GRE reporter decrease in yeast – S. cerevisiae, luminescence, Hsp90 inhibitor project, dose response (AID 2400); format: functional, cell-based;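 also: beta-galactosidase luminescence from glucocorticoid response element reporter as proxy for Hsp90 function; inhibitor potency where signal loss means Hsp90 inhibition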
Sequence of ATP-dependent molecular chaperone HSP82 (C4YTQ8 whole entry): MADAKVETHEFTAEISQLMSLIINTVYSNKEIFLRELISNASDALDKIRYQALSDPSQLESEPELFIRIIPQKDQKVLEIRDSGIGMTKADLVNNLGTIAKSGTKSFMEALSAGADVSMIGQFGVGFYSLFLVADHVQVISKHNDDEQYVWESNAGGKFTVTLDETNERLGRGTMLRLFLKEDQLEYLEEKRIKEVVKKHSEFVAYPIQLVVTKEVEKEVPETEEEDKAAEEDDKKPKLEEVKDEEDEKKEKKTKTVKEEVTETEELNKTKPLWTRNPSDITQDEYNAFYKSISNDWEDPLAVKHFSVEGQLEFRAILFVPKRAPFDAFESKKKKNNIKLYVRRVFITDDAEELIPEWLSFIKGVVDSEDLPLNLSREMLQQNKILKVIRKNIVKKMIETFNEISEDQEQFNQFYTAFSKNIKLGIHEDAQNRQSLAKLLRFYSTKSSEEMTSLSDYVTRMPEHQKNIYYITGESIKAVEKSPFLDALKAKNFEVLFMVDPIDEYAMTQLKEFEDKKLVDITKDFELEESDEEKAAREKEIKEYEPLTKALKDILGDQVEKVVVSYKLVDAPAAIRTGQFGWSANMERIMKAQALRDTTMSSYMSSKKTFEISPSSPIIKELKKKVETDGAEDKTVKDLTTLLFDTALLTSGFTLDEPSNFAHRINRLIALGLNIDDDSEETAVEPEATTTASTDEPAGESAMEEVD

Mu-type opioid receptor = Mu-type opioid receptor (Homo sapiens, UniProt P35372); format: functional, cell-based;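 also: U2OS cells with beta-arrestin recruitment to OPRM1 by beta-gal complementation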
Sequence of Mu-type opioid receptor (P35372 whole entry): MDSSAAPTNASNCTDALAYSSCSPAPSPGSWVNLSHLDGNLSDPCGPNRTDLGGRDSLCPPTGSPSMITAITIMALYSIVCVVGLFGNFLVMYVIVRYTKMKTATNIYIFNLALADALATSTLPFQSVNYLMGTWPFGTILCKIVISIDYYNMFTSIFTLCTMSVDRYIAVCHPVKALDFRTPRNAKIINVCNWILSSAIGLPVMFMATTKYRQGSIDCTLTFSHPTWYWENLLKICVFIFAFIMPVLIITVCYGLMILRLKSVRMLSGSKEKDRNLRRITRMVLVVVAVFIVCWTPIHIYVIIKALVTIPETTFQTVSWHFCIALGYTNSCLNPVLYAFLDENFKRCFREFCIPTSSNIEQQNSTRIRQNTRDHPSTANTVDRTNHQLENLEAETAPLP

[7] = target: 5-hydroxytryptamine receptor 2A (Mus musculus, UniProt P35363); format: functional, cell-based;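 also: CHO-K1 cells with tagged receptor and beta-arrestin; agonist potency measured as compound-induced activation of the receptor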
Sequence of 5-hydroxytryptamine receptor 2A (P35363 whole entry): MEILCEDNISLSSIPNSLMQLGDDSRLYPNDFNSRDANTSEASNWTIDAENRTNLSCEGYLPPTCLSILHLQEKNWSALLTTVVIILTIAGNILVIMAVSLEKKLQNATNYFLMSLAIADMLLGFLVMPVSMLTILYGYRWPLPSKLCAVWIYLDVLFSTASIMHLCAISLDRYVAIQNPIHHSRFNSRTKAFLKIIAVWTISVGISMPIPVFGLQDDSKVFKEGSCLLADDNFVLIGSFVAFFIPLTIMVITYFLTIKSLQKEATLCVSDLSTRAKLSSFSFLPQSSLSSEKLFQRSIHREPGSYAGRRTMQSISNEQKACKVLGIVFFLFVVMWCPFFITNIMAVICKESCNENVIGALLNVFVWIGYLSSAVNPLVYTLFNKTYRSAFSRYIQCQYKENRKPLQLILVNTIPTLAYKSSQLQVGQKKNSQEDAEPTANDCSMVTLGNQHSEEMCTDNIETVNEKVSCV

[8] = target: T3, Heat shock factor protein 1 (Mus musculus, UniProt P38532); assay: decrease of HSF1-responsive luciferase luminescence – cell-based, NIH3T3, dose retest, confirmation (AID 2382); format: functional;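 also: NIH3T3 fibroblasts with HSF1-driven luciferase reporter stressed by proteasome inhibitor MG132; luminescence from HSF1-driven luciferase expression after 8 hours of MG132 stress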
T3 sequence (P38532 whole entry): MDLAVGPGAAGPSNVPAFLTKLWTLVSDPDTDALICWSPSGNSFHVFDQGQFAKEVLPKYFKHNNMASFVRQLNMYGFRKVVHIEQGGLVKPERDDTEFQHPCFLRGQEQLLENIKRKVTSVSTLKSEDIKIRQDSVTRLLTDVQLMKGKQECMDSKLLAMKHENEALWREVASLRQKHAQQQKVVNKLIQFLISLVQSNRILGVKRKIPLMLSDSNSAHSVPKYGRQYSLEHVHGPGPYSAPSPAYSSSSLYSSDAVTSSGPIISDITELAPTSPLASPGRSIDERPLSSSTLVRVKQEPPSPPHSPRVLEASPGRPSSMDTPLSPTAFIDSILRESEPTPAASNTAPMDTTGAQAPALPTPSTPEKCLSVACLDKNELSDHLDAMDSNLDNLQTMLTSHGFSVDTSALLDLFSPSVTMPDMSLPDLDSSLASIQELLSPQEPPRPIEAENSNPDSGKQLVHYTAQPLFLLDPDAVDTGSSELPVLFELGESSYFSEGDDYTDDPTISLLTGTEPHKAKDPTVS

Escherichia coli = assay: microbe, parasite or virus in culture
[9] = target: T4, Replicative DNA helicase DnaB (Mycobacterium tuberculosis, UniProt P9WMR3); assay: DnaB intein splicing inhibitors, dose response, biochemical, cell-free fluorescence (AID 449749); format: functional
T4 sequence (P9WMR3 whole entry): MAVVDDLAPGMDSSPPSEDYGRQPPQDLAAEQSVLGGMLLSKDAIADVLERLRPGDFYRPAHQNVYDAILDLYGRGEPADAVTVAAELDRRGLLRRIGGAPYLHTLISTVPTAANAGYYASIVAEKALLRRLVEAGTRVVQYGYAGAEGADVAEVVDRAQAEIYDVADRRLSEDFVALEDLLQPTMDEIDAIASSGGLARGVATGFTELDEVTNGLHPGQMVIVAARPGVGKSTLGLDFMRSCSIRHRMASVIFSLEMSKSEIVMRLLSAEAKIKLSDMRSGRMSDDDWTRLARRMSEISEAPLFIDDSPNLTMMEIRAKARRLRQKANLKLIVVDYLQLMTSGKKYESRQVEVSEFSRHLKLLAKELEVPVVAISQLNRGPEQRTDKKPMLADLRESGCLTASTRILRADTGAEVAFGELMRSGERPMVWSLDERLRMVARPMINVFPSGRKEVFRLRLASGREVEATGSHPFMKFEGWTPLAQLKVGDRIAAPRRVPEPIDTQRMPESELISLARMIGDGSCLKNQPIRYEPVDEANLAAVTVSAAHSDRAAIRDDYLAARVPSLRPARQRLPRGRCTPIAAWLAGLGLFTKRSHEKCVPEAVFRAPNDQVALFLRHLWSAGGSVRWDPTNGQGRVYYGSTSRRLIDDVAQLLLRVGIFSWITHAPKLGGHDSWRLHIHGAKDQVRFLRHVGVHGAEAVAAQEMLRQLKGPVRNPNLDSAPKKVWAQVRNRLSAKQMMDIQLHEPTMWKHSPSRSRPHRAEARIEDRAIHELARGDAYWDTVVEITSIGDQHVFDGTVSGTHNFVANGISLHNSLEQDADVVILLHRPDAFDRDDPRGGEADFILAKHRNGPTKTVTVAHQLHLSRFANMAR

Vero [10] = assay: cells; format: functional, cell-based; settings: Chlorocebus sabaeus
Protein RecA = target: T5, Protein RecA (Mycobacterium tuberculosis, UniProt P9WHJ3); assay: Fluorescence Cell-Free Homogeneous Dose Retest to Identify Inhibitors of RecA-Intein Splicing Activity. [Related pubchem assays (depositor defined):AID2097, AID2223, AID489010, AID492950]; format: functional
T5 sequence (P9WHJ3 whole entry): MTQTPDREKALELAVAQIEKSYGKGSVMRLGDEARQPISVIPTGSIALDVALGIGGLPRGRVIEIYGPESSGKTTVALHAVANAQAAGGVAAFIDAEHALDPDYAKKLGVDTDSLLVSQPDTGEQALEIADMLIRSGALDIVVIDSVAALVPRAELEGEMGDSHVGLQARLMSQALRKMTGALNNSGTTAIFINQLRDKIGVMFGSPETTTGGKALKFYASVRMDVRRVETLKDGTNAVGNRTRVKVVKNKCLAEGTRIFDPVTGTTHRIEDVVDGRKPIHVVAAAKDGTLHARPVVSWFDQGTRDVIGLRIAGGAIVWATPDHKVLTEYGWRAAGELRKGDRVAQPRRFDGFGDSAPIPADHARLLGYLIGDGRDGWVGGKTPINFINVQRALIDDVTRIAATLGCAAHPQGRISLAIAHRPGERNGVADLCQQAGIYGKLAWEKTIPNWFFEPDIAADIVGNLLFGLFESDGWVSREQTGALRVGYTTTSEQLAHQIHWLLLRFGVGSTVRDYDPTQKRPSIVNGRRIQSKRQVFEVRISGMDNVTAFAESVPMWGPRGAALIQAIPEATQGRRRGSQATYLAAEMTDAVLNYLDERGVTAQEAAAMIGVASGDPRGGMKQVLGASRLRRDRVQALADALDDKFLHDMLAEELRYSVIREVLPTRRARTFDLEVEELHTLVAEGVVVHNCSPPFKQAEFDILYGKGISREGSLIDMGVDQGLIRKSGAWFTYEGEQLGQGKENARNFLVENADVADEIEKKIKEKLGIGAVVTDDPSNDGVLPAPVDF

Vero [11] = assay: cells; format: functional; settings: Chlorocebus sabaeus
Paired box protein Pax-8 = Paired box protein Pax-8 (Homo sapiens, UniProt Q06710); assay: PAX8 transcriptional activity inhibition in RMG-I – RMG-I cells, luciferase, cherry-pick, dose response (AID 687027); format: functional, cell-based;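 also: luciferase reporter driven by Pax8 target thyroperoxidase promoter measured by SteadyGlo luminescence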
Sequence of Paired box protein Pax-8 (Q06710 whole entry): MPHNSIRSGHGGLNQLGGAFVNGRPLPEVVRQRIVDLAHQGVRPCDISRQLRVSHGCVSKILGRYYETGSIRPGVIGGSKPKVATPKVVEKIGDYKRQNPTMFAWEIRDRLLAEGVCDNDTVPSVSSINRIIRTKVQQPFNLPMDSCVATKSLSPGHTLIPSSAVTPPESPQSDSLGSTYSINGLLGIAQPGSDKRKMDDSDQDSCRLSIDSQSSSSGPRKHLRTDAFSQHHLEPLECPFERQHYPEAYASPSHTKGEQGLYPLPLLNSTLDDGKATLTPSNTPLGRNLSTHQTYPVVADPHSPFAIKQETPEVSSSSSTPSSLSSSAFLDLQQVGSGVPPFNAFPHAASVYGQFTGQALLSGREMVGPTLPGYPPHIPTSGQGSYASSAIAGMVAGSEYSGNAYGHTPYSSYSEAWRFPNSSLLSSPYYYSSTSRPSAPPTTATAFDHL

[12] = general cell-killing toxicity readout – plate reader, dry powder samples, cytotoxicity control for PAX8 inhibitor project, dose response (AID 743021); format: functional, cell-based
[13] = test system: Streptococcus sp. 'group A'; assay: Streptococcus pyogenes SK(-)GAS viability under kanamycin – luminescence, BacTiterGlo, confirmation, counter-screen for streptokinase expression inhibitor project, dose response (AID 1900); format: functional, organism-based
Streptococcus = assay: GAS UMAA2166 growth inhibition – luminescence, BacTiterGlo, counter-screen for streptokinase expression inhibitor project, dose response (AID 1915); format: functional, organism-based;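 also: potency for reduction of bacterial viability or growth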
INS1 = assay: INS-1E survival protection against cytokine death – cell-based, luminescence, retest, dose response (AID 449756); format: functional; settings: Rattus norvegicus;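 also: cell death triggered by IL-1 beta plus TNF-alpha plus IFN-gamma mixture; protective hits raise ATP signal compared with cytokine alone wells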

Sequence of Voltage-gated inwardly rectifying potassium channel KCNH2 (Q12809 whole entry): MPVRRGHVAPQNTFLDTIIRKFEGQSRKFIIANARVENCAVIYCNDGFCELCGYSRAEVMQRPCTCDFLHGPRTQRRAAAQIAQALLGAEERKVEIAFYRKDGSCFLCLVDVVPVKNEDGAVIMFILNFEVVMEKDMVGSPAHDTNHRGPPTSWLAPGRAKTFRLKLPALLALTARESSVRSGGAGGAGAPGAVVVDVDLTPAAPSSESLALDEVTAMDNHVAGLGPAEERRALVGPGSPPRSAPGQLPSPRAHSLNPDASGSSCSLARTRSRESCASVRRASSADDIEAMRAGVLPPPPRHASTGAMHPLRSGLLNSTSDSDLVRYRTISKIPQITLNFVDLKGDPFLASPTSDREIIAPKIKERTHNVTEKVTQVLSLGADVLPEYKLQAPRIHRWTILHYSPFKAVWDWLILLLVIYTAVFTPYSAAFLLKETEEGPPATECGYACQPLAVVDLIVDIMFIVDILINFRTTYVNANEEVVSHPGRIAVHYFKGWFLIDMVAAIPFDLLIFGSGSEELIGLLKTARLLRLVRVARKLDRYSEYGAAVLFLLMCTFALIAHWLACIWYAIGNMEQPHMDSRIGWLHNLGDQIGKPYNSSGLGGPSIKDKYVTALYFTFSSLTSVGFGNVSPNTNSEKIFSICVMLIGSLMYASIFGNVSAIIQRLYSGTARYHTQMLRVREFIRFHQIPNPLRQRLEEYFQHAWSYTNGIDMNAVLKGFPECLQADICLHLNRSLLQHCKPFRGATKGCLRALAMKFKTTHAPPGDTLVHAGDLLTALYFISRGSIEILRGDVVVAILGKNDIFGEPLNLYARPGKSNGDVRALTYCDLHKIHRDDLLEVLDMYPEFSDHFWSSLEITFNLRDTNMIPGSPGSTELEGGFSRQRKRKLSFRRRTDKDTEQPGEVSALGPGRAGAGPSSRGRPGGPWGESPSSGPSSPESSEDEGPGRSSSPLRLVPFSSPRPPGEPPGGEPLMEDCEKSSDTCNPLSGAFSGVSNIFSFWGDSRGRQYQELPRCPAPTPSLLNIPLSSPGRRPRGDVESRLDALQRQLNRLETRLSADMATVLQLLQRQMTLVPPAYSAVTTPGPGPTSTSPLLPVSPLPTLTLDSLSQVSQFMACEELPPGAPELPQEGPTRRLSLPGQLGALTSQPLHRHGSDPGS

## OCc1c[nH]cn1
[1]
  AC50: 1.78 µM (inconclusive)

## CCCC(=O)Nc1nc(-c2ccc3c(c2)OCCO3)cs1
[2]
  AC50: 8.75 µM (active)

## Cc1cc(-c2ccc(C(=O)O)s2)cnc1N
Aminopeptidase N
  IC50: 58.9 µM (active)
[2]
  AC50: 4.79 µM (active)

## COc1cccc(-c2nc(NC(C)C)c3ccccc3n2)c1O
[3]
  EC50: > 160 µM (inactive)
[4]
  EC50: 4.42 µM (active)
[5]
  EC50: > 180 µM (inactive)
[6]
  EC50: 54.5 µM (active)
Mu-type opioid receptor
  EC50: 92.5 µM (inactive)
[7]
  EC50: 8.51 µM (active)

## CC(C)OC(=O)Cn1c(=O)oc2ccccc21
[8]
  EC50: > 195 µM (not active)
Escherichia coli
  AC50: 21.8 µM (active)

## Cc1cccc(N(Cc2cc(O)nc3ccccc23)C(=O)CCl)c1
[9]
  AC50: 10.5 µM (active)
Vero [10]
  IC50: > 25 µM (active)
Protein RecA
  EC50: 1.67 µM (active)
Vero [11]
  CC50: 5.83 µM (active)
Paired box protein Pax-8
  AC50: 3.93 µM (active)
[12]
  AC50: 24.9 µM (active)

## CC(Oc1cccnc1[N+](=O)[O-])C(=O)N1CCc2ccccc21 (stereo not given)
Escherichia coli
  AC50: 22.2 µM (active)

## CC(=O)Nc1ccc(NS(=O)(=O)c2ccc3ccccc3c2)cc1
Escherichia coli
  AC50: 27.4 µM (active)

## Cc1cc(N/N=C/c2c(O)ccc3ccccc23)nc(-c2ccccc2O)n1
[3]
  EC50: > 160 µM (inactive)
[13]
  EC50: 0.235 µM (active)
[4]
  EC50: 2.07 µM (active)
[5]
  EC50: > 180 µM (inactive)
Streptococcus
  EC50: 0.425 µM (active)
INS1
  AC50: 1.69 µM (active)
[6]
  EC50: 38.8 µM (active)

## COc1cc(N)c(Cl)cc1C(=O)OCCN1CCCCC1
[1]
  AC50: 25.1 µM (inconclusive)

## O=C(O)c1cc(/N=C/c2c(O)oc3ccccc3c2=O)ccc1O
[2]
  AC50: 32.5 µM (active)

## CC(C)c1ccccc1 [ISOPROPYLBENZENE]
[1]
  AC50: 1.58 µM (inconclusive)
